The numbers were not newly measured in patent publication US20230129262A1, “METHODS AND PHARMACEUTICAL COMPOSITIONS OF THROMBOXANE A2 RECEPTOR ANTAGONIST FOR THE TREATMENT OF COVID-19” (priority 2020, published 2023), which cites them from elsewhere.

Like-named read-outs stand apart in the source and are kept apart here.

Series [1] relates to TP receptor. The following applies: TP receptor blockade, several cited studies.
The target in another series is T1, TP receptors (Rattus norvegicus, UniProt P34978).
T1 sequence (P34978 1-341): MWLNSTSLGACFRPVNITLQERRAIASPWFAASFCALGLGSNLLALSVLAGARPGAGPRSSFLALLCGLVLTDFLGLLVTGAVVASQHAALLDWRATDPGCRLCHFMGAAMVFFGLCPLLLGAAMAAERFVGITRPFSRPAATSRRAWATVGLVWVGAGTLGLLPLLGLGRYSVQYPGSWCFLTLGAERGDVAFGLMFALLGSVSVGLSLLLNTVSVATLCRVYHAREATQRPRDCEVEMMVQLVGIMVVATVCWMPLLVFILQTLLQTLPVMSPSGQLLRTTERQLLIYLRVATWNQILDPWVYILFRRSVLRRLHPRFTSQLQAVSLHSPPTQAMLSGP
The settings on record: infusion of the TxA2 mimetic, preclinical studies (Bertolino, Valentin et al. 1995).

In the next series the test system is platelet activation. The settings on record: Tarantino, Amadio et al. 2016.
In series [2] the target is T2, TP receptor (Mus musculus, UniProt P30987).
T2 sequence (P30987 1-341): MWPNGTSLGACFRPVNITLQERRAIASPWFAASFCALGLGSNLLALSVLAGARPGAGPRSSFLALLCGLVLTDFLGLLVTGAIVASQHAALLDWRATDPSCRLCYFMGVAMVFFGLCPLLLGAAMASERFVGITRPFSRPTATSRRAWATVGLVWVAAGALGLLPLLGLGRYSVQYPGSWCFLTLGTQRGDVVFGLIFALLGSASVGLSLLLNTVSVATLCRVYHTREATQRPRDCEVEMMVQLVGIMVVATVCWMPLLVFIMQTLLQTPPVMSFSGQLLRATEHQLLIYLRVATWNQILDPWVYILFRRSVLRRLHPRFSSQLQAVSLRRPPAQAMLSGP
The following applies: bleomycin model of pulmonary fibrosis (Suzuki, Kropski et al. 2021).

In series [3] the target is T2, TP receptor. The following applies: chronic hypoxia in mice, potentiated in COX-2 knock-out mice (Cathcart, Tamosiuniene et al. 2008).
The target of series [4] is T2, TP receptor. The following applies: pressure-overload model of pulmonary arterial hypertension (West, Voss et al. 2016).
In series [5] the target is T2, TP receptor. The settings on record: model of Duchenne muscular dystrophy (West, Galindo et al. 2019).
The test system of series [6] is TP receptor.
Series [7] deals with T3, TP receptor (Homo sapiens, UniProt P21731).
T3 sequence (P21731 1-343): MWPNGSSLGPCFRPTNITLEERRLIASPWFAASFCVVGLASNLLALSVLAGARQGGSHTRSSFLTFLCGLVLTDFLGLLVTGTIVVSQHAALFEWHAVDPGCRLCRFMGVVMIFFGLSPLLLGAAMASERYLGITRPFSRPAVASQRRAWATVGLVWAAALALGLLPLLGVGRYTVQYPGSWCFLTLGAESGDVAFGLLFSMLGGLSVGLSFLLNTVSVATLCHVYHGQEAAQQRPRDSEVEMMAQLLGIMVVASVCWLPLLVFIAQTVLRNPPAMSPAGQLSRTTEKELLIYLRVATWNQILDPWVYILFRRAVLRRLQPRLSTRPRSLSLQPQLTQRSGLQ
The following applies: patients with acute lung injury; by selectively relaxing pulmonary veins and decreasing post-capillary resistance (Schuster, Kozlowski et al. 2001).

`C[C@H](c1ccccc1)[C@@H](O)/C=C/[C@@H]1[C@H](C/C=C\CCCC(=O)O)[C@H]2CC[C@@H]1O2` [SQ28668]: the “lung injury-associated pulmonary hypertension, hypoxemia, and pulmonary edema” value with TP receptor [1] is on record as “inhibited”.

As for `CCCCCCC(=O)NCC(=O)NC[C@H]1[C@@H](C/C=C\CCCC(=O)O)[C@@H]2CC[C@H]1O2` [SQ30741], the “lung injury-associated pulmonary hypertension, hypoxemia, and pulmonary edema” value with TP receptor [1] is “inhibited”.

`CCCCC[C@H](O)/C=C/[C@@H]1[C@@H](C/C=C\CCCC(=O)O)[C@H]2CO[C@@H]1C2` [U-16,619, 9,11-dideoxy-9α, 11α-methanoepoxy prostaglandin F2α]: on TP receptors, the “plasma fluid and protein accumulation in the lung” value is given as “strongly increased”.

Consider `CC(=O)Oc1ccccc1C(=O)O` [aspirin, acetylsalicylic acid], for which the mortality entry (high-dose aspirin (1,000 mg/day), compared to propensity score matched COVID-19 controls (Liu, Huang et al. 2021)) is “reduced”. Also, the “risk of mechanical ventilation, ICU admission, and in-hospital mortality” value (low-dose aspirin use, hospitalized COVID-19 patients (Chow, Khanna et al. 2021)) is given as “decreased risk”. Moreover, in the series on platelet activation, the “platelet activation in venous thrombosis” value is on record as “prevents”.

As for `CCCCCNC(=O)c1coc([C@H]2[C@@H](Cc3ccccc3CCC(=O)O)[C@@H]3CC[C@H]2O3)n1` [ifetroban, 3-[2-[[(1S,2R,3S,4R)-3-[4-(pentylcarbamoyl)-1,3-oxazol-2-yl]-7-oxabicyclo[2.2.1]heptan-2-yl]methyl]phenyl]propanoic acid], on TP receptor [2], the development of fibrosis entry is recorded as “blocked”. Further, at TP receptor [3], the “pulmonary hypertension and pulmonary intravascular thrombosis” value is “prevented”. For the same compound, the cardiac function result at TP receptor [4] and on TP receptor [5] was “improves” each time. Further, the right ventricular fibrosis entry on TP receptor [4] and at TP receptor [5] was “dramatically decreases” throughout. The “arterial and tissue oxygenation” value in the series with TP receptor [6] (compared with septic controls (Quinn and Slotman 1999)) is on record as “significantly increased”. In addition, the “systemic and pulmonary vasoconstriction” value in the series on TP receptor [6] (sepsis animal model (Quinn and Slotman 1999)) is reported as “ameliorated”. Moreover, in the series with TP receptor [1], the “lung injury-associated pulmonary hypertension, hypoxemia, and pulmonary edema” value is listed as “inhibited”. At TP receptor [7], the pulmonary capillary pressure entry was “reduced”.
